The target in data set [1] is Poly [ADP-ribose] polymerase 1 (Homo sapiens, UniProt P09874). Kind of data set: Inhibition of PARP1 by topcount microplate scintillation counter.
In data set [2] the test system is HeLa. Kind of data set: Antiproliferative activity against BRCA1-deficient human HeLa cells after 7 days by celltiter-blue assay. It counts as functional. To be noted: 168 h. On the technique in general: Resazurin is reduced to fluorescent resorufin, in cell work by metabolically active cells.
Data set [3] relates to HeLa. Kind of data set: Antiproliferative activity against BRCA1-proficient human HeLa cells after 7 days by celltiter-blue assay. The data set is classed as functional. Particulars: 168 h.
In data set [4] the test system is HeLa. As to the kind of experiment: Selectivity ratio of CC50 for BRCA1-proficient human HeLa to CC50 for BRCA1-deficient human HeLa cells. It counts as functional.
Data set [5] can be described thus: Lipophilicity, log D of the compound. The data set is classed as physicochemical. To be noted: octanol/water.

Where only a bound is given, the exact number is not on record here.

Sequence of Poly [ADP-ribose] polymerase 1 (P09874 whole entry): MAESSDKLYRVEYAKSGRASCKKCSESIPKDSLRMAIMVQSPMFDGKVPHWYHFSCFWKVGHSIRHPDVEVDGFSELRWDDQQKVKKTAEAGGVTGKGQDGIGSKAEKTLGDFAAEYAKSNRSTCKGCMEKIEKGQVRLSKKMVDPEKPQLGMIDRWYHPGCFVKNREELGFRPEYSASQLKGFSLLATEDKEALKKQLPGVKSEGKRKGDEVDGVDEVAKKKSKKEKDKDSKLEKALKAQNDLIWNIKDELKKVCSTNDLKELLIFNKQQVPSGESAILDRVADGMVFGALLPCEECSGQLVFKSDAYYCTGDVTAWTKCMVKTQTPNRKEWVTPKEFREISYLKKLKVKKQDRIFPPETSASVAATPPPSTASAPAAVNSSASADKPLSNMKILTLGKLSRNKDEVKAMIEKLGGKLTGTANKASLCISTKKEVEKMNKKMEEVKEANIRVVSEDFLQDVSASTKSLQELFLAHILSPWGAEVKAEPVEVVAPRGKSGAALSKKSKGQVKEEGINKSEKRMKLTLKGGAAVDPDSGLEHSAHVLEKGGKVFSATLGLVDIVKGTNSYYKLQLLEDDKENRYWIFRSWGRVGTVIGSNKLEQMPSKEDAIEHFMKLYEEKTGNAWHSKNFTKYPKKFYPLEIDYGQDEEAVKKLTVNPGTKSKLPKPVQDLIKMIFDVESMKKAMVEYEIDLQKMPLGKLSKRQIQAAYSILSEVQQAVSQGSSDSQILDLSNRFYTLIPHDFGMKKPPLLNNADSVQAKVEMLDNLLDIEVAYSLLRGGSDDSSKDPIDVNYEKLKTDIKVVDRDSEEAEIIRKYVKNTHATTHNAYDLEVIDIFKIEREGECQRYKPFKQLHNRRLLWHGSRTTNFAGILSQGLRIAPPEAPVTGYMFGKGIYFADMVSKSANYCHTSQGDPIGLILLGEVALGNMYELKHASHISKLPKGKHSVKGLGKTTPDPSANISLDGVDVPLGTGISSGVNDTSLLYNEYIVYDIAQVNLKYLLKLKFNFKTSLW

As usually defined, the IC50 is the midpoint of a concentration-inhibition curve. Lower therefore signals higher potency. In general, CC50 refers to the concentration giving 50% cytotoxicity. Turning to `CN(C)C(C)(C)C(=O)N1CCN(C(=O)c2cc(Cc3c[nH]c(=O)c4cc(Cl)c(Cl)n34)ccc2F)CC1`, in data set [1], the half-maximal inhibitory concentration (IC50) worked out at 5.1 nM. Besides, the CC50 in the data set with HeLa [2] was 200 nM; in the data set on HeLa [3] it was above 5 µM.
As for `CC(C)C(=O)N1CCN(C(=O)c2cc(Cc3c[nH]c(=O)c4cc(Cl)c(Cl)n34)ccc2F)CC1`, half-maximal inhibition in data set [1] (IC50) was put at 2.1 nM. For the same compound, the Selectivity ratio in the data set with HeLa [4] was found to be 30. The cytotoxic concentration (CC50) in the data set on HeLa [2] was 150 nM; in the data set with HeLa [3] it was above 5 µM.
Regarding `O=C(c1cc(Cc2c[nH]c(=O)c3cc(Cl)c(Cl)n23)ccc1F)N1CCN(c2cccnc2)CC1`, 12 nM corresponded to half-maximal inhibition in data set [1] (IC50). Moreover, the Selectivity ratio in the data set on HeLa [4] worked out at 20. Moreover, the CC50 in the data set on HeLa [2] was above 5000 nM; in the data set on HeLa [3], above 5 µM.
As for `O=C(c1cc(Cc2c[nH]c(=O)c3cc(Cl)c(Cl)n23)ccc1F)N1CCN(c2ccccn2)CC1`, the concentration for half-maximal inhibition (IC50) in data set [1] was found to be 2.8 nM. The CC50 is 430 nM in the data set with HeLa [2] and above 10 µM in the data set on HeLa [3].
Compound `CN(C)C1CCN(C(=O)c2cc(Cc3c[nH]c(=O)c4cc(Cl)c(Cl)n34)ccc2F)CC1` came in with an IC50 in data set [1] of 2.6 nM. Moreover, the values for the CC50 in the data set with HeLa [2] and in the data set with HeLa [3] were 1600 nM and above 10 µM, respectively.
For `COc1cccnc1N1CCN(C(=O)c2cc(Cc3c[nH]c(=O)c4cc(Cl)c(Cl)n34)ccc2F)CC1`, the IC50 in data set [1] is 15 nM. In addition, the CC50 in the data set on HeLa [2] is 2700 nM; in the data set on HeLa [3] it was above 5 µM.
The corresponding values for `CC(C)(C)C(=O)N1CCN(C(=O)c2cc(Cc3c[nH]c(=O)c4cc(Cl)c(Cl)n34)ccc2F)CC1` are 1 nM, 340 nM and above 5 µM.
Take `O=C(c1cc(Cc2c[nH]c(=O)c3cc(Cl)c(Cl)n23)ccc1F)N1CCC2(CCN2)CC1`: 8.2 nM corresponded to half-maximal inhibition in data set [1] (IC50). Moreover, the CC50 was 2300 nM in the data set with HeLa [2] and above 5 µM in the data set with HeLa [3].
In general, logD refers to lipophilicity at a set pH, counting ionised and neutral species. `O=C(c1cc(Cc2c[nH]c(=O)c3cc(Cl)c(Cl)n23)ccc1F)N1CCCNCC1` yielded an IC50 in data set [1] of 2.6 nM. This compound also registered a logD in data set [5] of 0.91. Besides, the values for the half-maximal cytotoxic concentration (CC50) with HeLa [2] and in the data set on HeLa [3] were 170 nM and above 20 µM, respectively.
Compound `O=C(c1ncc[nH]1)N1CCN(C(=O)c2cc(Cc3c[nH]c(=O)c4cc(Cl)c(Cl)n34)ccc2F)CC1` registered an IC50 in data set [1] of 3.1 nM. Besides, the CC50 in the data set with HeLa [2] is 500 nM; in the data set with HeLa [3], above 5 µM.
The corresponding values for `O=C(c1cc(Cc2c[nH]c(=O)c3cc(Cl)c(Cl)n23)ccc1F)N1CCC(N2CCC2)CC1` are 1 nM, 180 nM and above 10 µM.
Taken in the same sequence, the figures for `NC1CCN(C(=O)c2cc(Cc3c[nH]c(=O)c4cc(Cl)c(Cl)n34)ccc2F)CC1` were 7.1 nM, 3800 nM and above 10 µM.
The corresponding values for `CCC(=O)N1CCN(C(=O)c2cc(Cc3c[nH]c(=O)c4cc(Cl)c(Cl)n34)ccc2F)CC1` are 3.2 nM, 1200 nM and above 5 µM.
Regarding `O=C(c1cc(Cc2c[nH]c(=O)c3cc(Cl)c(Cl)n23)ccc1F)N1CCC2(CC1)NCNC2=O`, inhibition in data set [1] was half-maximal at 9 nM (IC50). Moreover, the CC50 with HeLa [2] is above 2500 nM; in the data set with HeLa [3], above 5 µM.
The corresponding values for `O=C(c1cc(Cc2c[nH]c(=O)c3cc(Cl)c(Cl)n23)ccc1F)N1CCN(c2ccccc2F)CC1` are 24 nM, above 10000 nM and above 10 µM.
As to `O=C(c1cc(Cc2c[nH]c(=O)c3cc(Cl)c(Cl)n23)ccc1F)N1CCOCC1`, the IC50 in data set [1] was determined as 59 nM.
In the case of `CN1CCN(C(=O)c2cc(Cc3c[nH]c(=O)c4cc(Cl)c(Cl)n34)ccc2F)CC1`, the IC50 in data set [1] stood at 41 nM.
In turn, `O=C(c1cc(Cc2c[nH]c(=O)c3c(Cl)cc(Cl)n23)ccc1F)N1CCCNCC1` gave an IC50 in data set [1] of 4 nM. In addition, the CC50 in the data set on HeLa [2] is 18000 nM; with HeLa [3], above 20 µM.
The compound `O=C(c1cc(Cc2c[nH]c(=O)c3cc(Cl)cn23)ccc1F)N1CCCNCC1` returned an IC50 in data set [1] of 1 nM. Moreover, the logD in data set [5] was determined as 0.58. The CC50 in the data set on HeLa [2] is 2500 nM; in the data set with HeLa [3] it was above 20 µM.
In turn, `O=C(c1cc(Cc2c[nH]c(=O)c3cc(Cl)c(Cl)n23)ccc1F)N1CCC2(CCCCN2)CC1` showed a 50% inhibitory concentration (IC50) in data set [1] of 6.2 nM. Also, the CC50 is 220 nM in the data set on HeLa [2] and above 5 µM with HeLa [3].
Compound `CC(=O)N1CCCN(C(=O)c2cc(Cc3c[nH]c(=O)c4cc(Cl)c(Cl)n34)ccc2F)CC1` displayed an IC50 in data set [1] of 19 nM. The CC50 is 5700 nM in the data set with HeLa [2] and above 20 µM with HeLa [3].
`O=C(c1cc(Cc2c[nH]c(=O)c3cc(Cl)c(Cl)n23)ccc1F)N1CCCCC1` displayed an IC50 in data set [1] of 200 nM.
The compound `CC(C)CN1CCN(C(=O)c2cc(Cc3c[nH]c(=O)c4cc(Cl)c(Cl)n34)ccc2F)CC1` had an IC50 in data set [1] of 14 nM. For the same compound, the values for the CC50 in the data set with HeLa [2] and in the data set on HeLa [3] were 250 nM and above 10 µM, respectively.
The corresponding values for `CNC1CCN(C(=O)c2cc(Cc3c[nH]c(=O)c4cc(Cl)c(Cl)n34)ccc2F)CC1` are 2.3 nM, 400 nM and above 5 µM.
Taken in the same sequence, the figures for `CCS(=O)(=O)N1CCN(C(=O)c2cc(Cc3c[nH]c(=O)c4cc(Cl)c(Cl)n34)ccc2F)CC1` were 9 nM, 3000 nM and above 5 µM.
Taken in the same sequence, the figures for `CC(=O)N1CCN(C(=O)c2cc(Cc3c[nH]c(=O)c4cc(Cl)c(Cl)n34)ccc2F)CC1` were 6.3 nM, 700 nM and above 10 µM.
Compound `Cc1cc2c(=O)[nH]cc(Cc3ccc(F)c(C(=O)N4CCCNCC4)c3)n2c1` returned an IC50 in data set [1] of 1.6 nM. The CC50 in the data set with HeLa [2] is 3400 nM; with HeLa [3] it was above 20 µM.
The corresponding values for `O=C(c1cc(Cc2c[nH]c(=O)c3cc(Cl)c(Cl)n23)ccc1F)N1CCN(c2ncnc3ccccc23)CC1` are 1.4 nM, 60 nM and 0.92 µM.
In data set [1], `CCN(CC)C1CCN(C(=O)c2cc(Cc3c[nH]c(=O)c4cc(Cl)c(Cl)n34)ccc2F)CC1` registered an IC50 of 22 nM. Moreover, the cytotoxic concentration (CC50) was 1100 nM in the data set on HeLa [2] and above 5 µM in the data set with HeLa [3].
As to `O=C(c1ccccn1)N1CCN(C(=O)c2cc(Cc3c[nH]c(=O)c4cc(Cl)c(Cl)n34)ccc2F)CC1`, in data set [1], the IC50 was 2.4 nM. In the data set on HeLa [4], the Selectivity ratio is 30. In addition, the CC50 was 150 nM with HeLa [2] and above 5 µM with HeLa [3].
In data set [1], `O=C(c1cc(Cc2c[nH]c(=O)c3cc(Cl)c(Cl)n23)ccc1F)N1CCN(c2cc3ccccc3cn2)CC1` registered an IC50 of 1.8 nM. The CC50 with HeLa [2] was 320 nM; in the data set on HeLa [3] it was 1.2 µM.
Taken in the same sequence, the figures for `CN1CCCN(C(=O)c2cc(Cc3c[nH]c(=O)c4cc(Cl)c(Cl)n34)ccc2F)CC1` were 5 nM, 1100 nM and above 20 µM.
The corresponding values for `CN(C)C(=O)C(=O)N1CCN(C(=O)c2cc(Cc3c[nH]c(=O)c4cc(Cl)c(Cl)n34)ccc2F)CC1` are 2 nM, 1800 nM and above 10 µM.
For the compound `O=C(c1cc(Cc2c[nH]c(=O)c3cc(Cl)c(Cl)n23)ccc1F)N1CCN(CCO)CC1`, 13 nM corresponded to half-maximal inhibition in data set [1] (IC50). Further, the CC50 in the data set with HeLa [2] was above 5000 nM; in the data set with HeLa [3], above 10 µM.
Take `O=C(c1cc(Cc2c[nH]c(=O)c3cc(Cl)c(Cl)n23)ccc1F)N1CCC2(CCCN2)CC1`: the Selectivity ratio in the data set with HeLa [4] is given as 50. For the same compound, the CC50 in the data set with HeLa [2] is 48 nM; with HeLa [3], above 10 µM.
Regarding `N#Cc1cccnc1N1CCN(C(=O)c2cc(Cc3c[nH]c(=O)c4cc(Cl)c(Cl)n34)ccc2F)CC1`, in data set [1], half-maximal inhibition (IC50) was put at 0.7 nM. In the data set with HeLa [4], the Selectivity ratio is recorded as 25. The CC50 in the data set with HeLa [2] stood at 62 nM; in the data set with HeLa [3], 1.6 µM.
On to `O=C(c1cc(Cc2c[nH]c(=O)c3cc(Cl)c(Cl)n23)ccc1F)N1CCN(C(=O)C2CCCC2)CC1`, for which, in data set [1], the IC50 turned out to be 3.7 nM. The CC50 is 270 nM with HeLa [2] and above 5 µM in the data set on HeLa [3].
Taken in the same sequence, the figures for `CN(C)S(=O)(=O)N1CCN(C(=O)c2cc(Cc3c[nH]c(=O)c4cc(Cl)c(Cl)n34)ccc2F)CC1` were 2.4 nM, 910 nM and above 10 µM.
Taken in the same sequence, the figures for `CN(C)CC(=O)N1CCN(C(=O)c2cc(Cc3c[nH]c(=O)c4cc(Cl)c(Cl)n34)ccc2F)CC1` were 2.5 nM, 3500 nM and above 10 µM.
Taken in the same sequence, the figures for `O=C(c1cc(Cc2c[nH]c(=O)c3cc(Cl)c(Cl)n23)ccc1F)N1CCN(c2ncccn2)CC1` were 3.1 nM, 130 nM and 2.8 µM.
For the compound `O=C(c1cc(Cc2c[nH]c(=O)c3cc(Cl)c(Cl)n23)ccc1F)N1CCN(c2ncc3ccccc3n2)CC1`, 1 nM corresponded to half-maximal inhibition in data set [1] (IC50). Also, the figures for the half-maximal cytotoxic concentration (CC50) in the data set on HeLa [2] and in the data set with HeLa [3] were 190 nM and 0.77 µM, respectively.
Taken in the same sequence, the figures for `N#Cc1ccc(N2CCN(C(=O)c3cc(Cc4c[nH]c(=O)c5cc(Cl)c(Cl)n45)ccc3F)CC2)nc1` were 14 nM, 200 nM and 4.2 µM.
Taken in the same sequence, the figures for `O=C(c1cc(Cc2c[nH]c(=O)c3c(Cl)c(Cl)cn23)ccc1F)N1CCCNCC1` were 1.6 nM, 220 nM and above 20 µM.
Compound `O=C(c1cc(Cc2c[nH]c(=O)c3cc(Cl)c(Cl)n23)ccc1F)N1CCN(C2CCCCC2)CC1` came in with an IC50 in data set [1] of 14 nM. Also, the CC50 in the data set on HeLa [2] was 970 nM; with HeLa [3], above 5 µM.
Taken in the same sequence, the figures for `CCCCN1CCN(C(=O)c2cc(Cc3c[nH]c(=O)c4cc(Cl)c(Cl)n34)ccc2F)CC1` were 13 nM, 1600 nM and above 10 µM.
Taken in the same sequence, the figures for `CN(C)CCN1CCN(C(=O)c2cc(Cc3c[nH]c(=O)c4cc(Cl)c(Cl)n34)ccc2F)CC1` were 18 nM, above 10000 nM and above 10 µM.
Taken in the same sequence, the figures for `O=C(c1cc(Cc2c[nH]c(=O)c3cc(Cl)c(Cl)n23)ccc1F)N1CCNCC1` were 2.3 nM, 180 nM and above 20 µM.
In turn, `CN(C)C(=O)N1CCN(C(=O)c2cc(Cc3c[nH]c(=O)c4cc(Cl)c(Cl)n34)ccc2F)CC1` gave an IC50 in data set [1] of 7.2 nM. The CC50 is 670 nM in the data set on HeLa [2] and above 10 µM in the data set on HeLa [3].
